ChEMBL document CHEMBL1148283 (J Med Chem, 2004)
pIC50: −log10 of the molar value.

Tests used:
[1] = molecular target: Nitric oxide synthase, inducible (Homo sapiens, UniProt P35228)
Nitric oxide synthase 1 [2] = molecular target: T1, Nitric oxide synthase 1 (Homo sapiens, UniProt P29475)
Description: In vitro inhibition of human neuronal nitric oxide synthase.

Nitric oxide synthase 3 = molecular target: T2, Nitric oxide synthase 3 (Homo sapiens, UniProt P29474); test: In vitro inhibition of human endothelial nitric oxide synthase.
T2 sequence (P29474 whole entry): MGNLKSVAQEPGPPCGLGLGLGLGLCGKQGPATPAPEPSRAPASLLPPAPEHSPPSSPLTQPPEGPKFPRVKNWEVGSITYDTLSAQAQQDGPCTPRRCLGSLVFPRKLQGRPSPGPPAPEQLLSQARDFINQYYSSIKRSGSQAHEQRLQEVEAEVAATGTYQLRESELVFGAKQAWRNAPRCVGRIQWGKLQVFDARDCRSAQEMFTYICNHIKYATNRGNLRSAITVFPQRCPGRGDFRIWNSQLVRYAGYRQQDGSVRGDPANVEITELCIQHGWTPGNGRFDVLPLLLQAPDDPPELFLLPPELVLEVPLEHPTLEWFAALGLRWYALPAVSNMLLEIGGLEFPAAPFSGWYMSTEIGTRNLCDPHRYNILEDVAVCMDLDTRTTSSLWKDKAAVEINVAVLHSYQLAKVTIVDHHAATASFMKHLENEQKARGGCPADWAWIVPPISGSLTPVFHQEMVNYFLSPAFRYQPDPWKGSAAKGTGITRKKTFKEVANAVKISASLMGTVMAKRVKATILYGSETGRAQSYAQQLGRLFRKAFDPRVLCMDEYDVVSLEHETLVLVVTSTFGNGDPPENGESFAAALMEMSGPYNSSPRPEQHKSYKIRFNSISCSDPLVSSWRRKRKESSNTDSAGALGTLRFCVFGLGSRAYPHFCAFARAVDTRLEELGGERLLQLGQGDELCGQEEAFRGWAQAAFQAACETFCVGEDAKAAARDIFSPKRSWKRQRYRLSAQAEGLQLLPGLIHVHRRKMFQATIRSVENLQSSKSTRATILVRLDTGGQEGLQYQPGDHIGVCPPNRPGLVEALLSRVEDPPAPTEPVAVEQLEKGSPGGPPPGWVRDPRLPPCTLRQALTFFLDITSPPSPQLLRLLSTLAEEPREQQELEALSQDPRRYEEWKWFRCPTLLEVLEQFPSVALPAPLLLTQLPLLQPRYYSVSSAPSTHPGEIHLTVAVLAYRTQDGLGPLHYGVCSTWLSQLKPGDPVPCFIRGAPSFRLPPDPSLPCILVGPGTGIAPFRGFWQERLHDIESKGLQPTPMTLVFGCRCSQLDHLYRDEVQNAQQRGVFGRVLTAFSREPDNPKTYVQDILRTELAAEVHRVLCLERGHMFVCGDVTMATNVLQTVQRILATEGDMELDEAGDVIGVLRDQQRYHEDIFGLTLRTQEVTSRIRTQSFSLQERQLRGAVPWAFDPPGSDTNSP

Nitric oxide synthase 1 [3] = molecular target: T1, Nitric oxide synthase 1; test: Percentage inhibition of human neuronal nitric oxide synthase (nNOS) at 100 uM
[4] = molecular target: T3, Nitric oxide synthase 3 (Homo sapiens) (UniProt P29474); test: Percentage inhibition of human endothelial nitric oxide synthase (eNOS) at 100 uM
T3 sequence (whole entry): T2 sequence (P29474 whole entry)

T1 sequence (P29475 whole entry): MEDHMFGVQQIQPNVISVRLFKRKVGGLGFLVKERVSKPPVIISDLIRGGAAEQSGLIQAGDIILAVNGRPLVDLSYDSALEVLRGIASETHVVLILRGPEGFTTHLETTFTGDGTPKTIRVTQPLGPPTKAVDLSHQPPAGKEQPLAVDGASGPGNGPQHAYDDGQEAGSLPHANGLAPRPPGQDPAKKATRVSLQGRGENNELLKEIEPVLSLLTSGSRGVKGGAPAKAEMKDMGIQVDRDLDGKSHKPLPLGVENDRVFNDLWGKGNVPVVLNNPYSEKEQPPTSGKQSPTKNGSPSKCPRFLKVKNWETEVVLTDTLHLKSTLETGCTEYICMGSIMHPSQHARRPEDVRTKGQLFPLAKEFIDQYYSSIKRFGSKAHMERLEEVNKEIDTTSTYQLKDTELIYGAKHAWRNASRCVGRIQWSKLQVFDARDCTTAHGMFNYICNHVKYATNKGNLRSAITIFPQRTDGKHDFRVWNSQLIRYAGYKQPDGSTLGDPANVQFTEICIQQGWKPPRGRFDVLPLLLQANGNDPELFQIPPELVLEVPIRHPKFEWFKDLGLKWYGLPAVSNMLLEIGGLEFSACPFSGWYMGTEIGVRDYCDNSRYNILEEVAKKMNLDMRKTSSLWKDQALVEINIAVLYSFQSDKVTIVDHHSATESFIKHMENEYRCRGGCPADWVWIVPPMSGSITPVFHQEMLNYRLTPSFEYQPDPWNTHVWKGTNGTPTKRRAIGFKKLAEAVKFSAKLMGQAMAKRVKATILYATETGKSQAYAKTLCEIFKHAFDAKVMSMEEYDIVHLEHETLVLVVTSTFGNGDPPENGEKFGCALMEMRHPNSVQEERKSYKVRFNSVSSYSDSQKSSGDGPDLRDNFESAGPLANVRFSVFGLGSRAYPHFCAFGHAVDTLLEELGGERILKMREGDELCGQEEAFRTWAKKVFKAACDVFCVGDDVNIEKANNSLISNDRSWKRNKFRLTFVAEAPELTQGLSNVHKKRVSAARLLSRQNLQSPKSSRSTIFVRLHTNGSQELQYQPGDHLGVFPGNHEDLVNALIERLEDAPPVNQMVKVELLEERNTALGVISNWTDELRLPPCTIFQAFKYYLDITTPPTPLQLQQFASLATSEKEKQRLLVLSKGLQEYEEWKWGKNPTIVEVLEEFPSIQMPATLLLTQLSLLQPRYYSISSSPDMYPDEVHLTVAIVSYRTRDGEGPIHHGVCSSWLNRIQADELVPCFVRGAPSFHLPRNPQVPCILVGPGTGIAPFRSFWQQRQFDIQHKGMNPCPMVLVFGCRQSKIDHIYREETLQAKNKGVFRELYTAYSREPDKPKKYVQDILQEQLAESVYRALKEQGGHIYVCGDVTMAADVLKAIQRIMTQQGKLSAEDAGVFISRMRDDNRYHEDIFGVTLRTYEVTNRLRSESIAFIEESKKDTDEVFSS
Chain of Nitric oxide synthase, inducible (P35228 whole entry): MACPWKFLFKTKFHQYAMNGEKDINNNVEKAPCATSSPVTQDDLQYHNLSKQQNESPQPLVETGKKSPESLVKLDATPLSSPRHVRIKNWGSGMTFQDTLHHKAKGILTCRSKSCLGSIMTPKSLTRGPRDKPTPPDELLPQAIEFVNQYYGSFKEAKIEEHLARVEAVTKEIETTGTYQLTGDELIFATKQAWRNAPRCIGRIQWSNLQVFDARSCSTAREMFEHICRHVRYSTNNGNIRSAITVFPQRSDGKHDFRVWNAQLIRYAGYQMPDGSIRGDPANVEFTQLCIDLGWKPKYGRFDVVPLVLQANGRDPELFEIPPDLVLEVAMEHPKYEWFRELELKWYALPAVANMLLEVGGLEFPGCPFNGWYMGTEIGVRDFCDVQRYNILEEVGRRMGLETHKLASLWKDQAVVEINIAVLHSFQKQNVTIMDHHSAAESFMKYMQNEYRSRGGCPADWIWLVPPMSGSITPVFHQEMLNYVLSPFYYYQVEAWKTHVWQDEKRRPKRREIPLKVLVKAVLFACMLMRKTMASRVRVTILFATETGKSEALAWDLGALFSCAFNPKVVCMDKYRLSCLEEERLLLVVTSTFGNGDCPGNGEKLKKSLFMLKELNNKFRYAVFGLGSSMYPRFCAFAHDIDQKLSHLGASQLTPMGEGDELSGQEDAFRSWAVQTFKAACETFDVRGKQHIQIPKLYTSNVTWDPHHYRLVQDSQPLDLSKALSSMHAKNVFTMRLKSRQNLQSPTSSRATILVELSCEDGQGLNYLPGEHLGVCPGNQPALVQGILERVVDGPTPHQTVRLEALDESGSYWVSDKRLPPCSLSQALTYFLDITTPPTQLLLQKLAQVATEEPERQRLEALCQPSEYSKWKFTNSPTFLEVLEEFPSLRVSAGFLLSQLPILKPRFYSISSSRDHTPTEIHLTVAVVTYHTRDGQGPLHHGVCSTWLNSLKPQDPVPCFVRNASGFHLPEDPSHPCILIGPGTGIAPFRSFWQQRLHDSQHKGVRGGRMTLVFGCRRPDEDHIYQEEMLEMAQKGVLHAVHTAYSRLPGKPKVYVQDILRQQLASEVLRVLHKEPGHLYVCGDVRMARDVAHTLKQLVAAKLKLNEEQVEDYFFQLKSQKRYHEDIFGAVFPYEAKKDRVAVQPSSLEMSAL

SMILES | pIC50 [1] | pIC50 (Nitric oxide synthase 1 [2]) | pIC50 (Nitric oxide synthase 3) | inhibition (Nitric oxide synthase 1 [3]) | inhibition [4]
CC(=N)NCCSCC[C@H](N)C(=O)O [GW-274150] | 7.15 | 4.74 | 4.47 | – | –
CNc1cc(C)cc(C)n1 | 4.07 | < 4.00 | 4.52 | < 20% | –
COc1ccnc(NC2CCN(C(=O)c3ccccc3)CC2)c1 | 6.28 | 4.55 | 4.00 | – | –
COc1ccnc(NC2CCN(C(=O)c3ccc(C#N)cc3)CC2)c1 | – | – | – | – | < 20%
CCOC(=O)N1CCC(Nc2cc(OCC)ccn2)CC1 | 5.42 | 4.02 | < 4.00 | – | < 20%
N#Cc1ccc(C(=O)N2CCC3(CC2)N=C(N)c2c(F)ccc(F)c2N3)cn1 | – | – | – | – | < 20%
CCOC(=O)N1CCC(Nc2ccccn2)CC1 | 4.89 | < 4.00 | < 4.00 | < 20% | < 20%

Continued by rising pIC50 (Nitric oxide synthase 1 [2]), values first:

pIC50 [1] | pIC50 (Nitric oxide synthase 1 [2]) | pIC50 (Nitric oxide synthase 3) | inhibition (Nitric oxide synthase 1 [3]) | inhibition [4] | SMILES
7.28 | 5.11 | 4.44 | – | – | COc1ccnc(NC2CCN(C(=O)c3ccc(Cl)cc3)CC2)c1
– | 5.66 | – | – | – | CCc1ccnc(N)c1
– | 5.80 | – | – | – | CC(=N)NCCCC[C@H](N)C(=O)O [L-NIL]
6.00 | 6.00 | 6.00 | – | – | COc1ccnc(N)c1
7.59 | 6.62 | 5.32 | – | – | CCCC1CCCCCC(N)=N1 (stereo not given)
7.35 | 7.01 | 6.77 | – | – | Cc1cc(C)nc(N)c1
